The test system of one assay is U87-MG cells. In words: Boyden chamber Matrigel invasion, U87-MG. The format is cell-based, human. The note with it: for invasion, % basal, average expt 1: mean of expt 1. On the procedure:
The migration and invasion assays were performed using Boyden chambers and 8 µm pore size PVP-free filters coated with 50 µg/mL of collagen type VI (Sigma), as previously described. For the invasion assays, collagen-coated filters were further coated with 50 µg/mL Matrigel^TM (Sigma). Briefly, 11 × 10^4 U87-MG, 4 × 10^4 U251-MG, or 4 × 10^4 U138-MG/sample were pre-treated for 40 min at 37 °C with the indicated effectors. Then, the cells were allowed to migrate for 3 h or to invade for 5 h at 37 °C toward 5% FBS in DMEM/0.1% BSA. At the end of both assays, the cells on the lower filter surface were fixed, stained with haematoxylin, and counted under an optical microscope (Zeiss Axiophot, Carl Zeiss, Milan, Italy) at 20× magnification. […] The migrated or invaded cells were reported as percentage of basal migration or invasion in the presence of DMEM/0.1% BSA, taken as 100%, and analyzed as reported in Section 2.11.
Figure 4 Effect of uPAcyclin on matrix invasion of U87-MG, U251-MG, and U138-MG GBM cells. Quantitative analysis of U87-MG (A), U251-MG (B), and U138-MG (C) invasion. […] Data are expressed as in the legend to Figure 3. Results are expressed as percentages with respect to the basal invasion, considered as 100% (* p-value < 0.05; ** p-value < 0.005; *** p-value < 0.001).

The subject of assay [1] is HT1080 fibrosarcoma cells. The note with it: cited from earlier work. From the text: Thus, in the present work, we investigated the effects of the anti-migratory uPAcyclin decapeptide, binding to the αV integrin subunit. This cyclic decapeptide is derived from a non-catalytic region of the human urokinase (uPA) plasminogen activator. The growth factor domain (GFD, residues 1-49) and the connecting peptide region (CP, residues 132-158) confer to the full uPA a clearcut motogen activity. While the GFD binds to the urokinase receptor (uPAR), the CP region binds to the αV integrin subunit. […] The primary sequence of this cyclic peptide, derived from the connecting peptide region (CP) of the serin protease urokinase (uPA), is reported in Figure 1A. As assessed by a previous conformational analysis of uPAcyclin performed in water solution, about half of the peptide molecules ...

The next assay has as its system C6 cells. Kind of assay: Wound healing assay, C6. It counts as cell-based, rat. Here is the method:
The wound healing assay or scratch test was performed as previously reported. Briefly, 6 × 10^3 U87-MG cells were seeded in multiwell-12 plates containing culture inserts for live cell analysis (Ibidi, Gmbh, Martinsried, Germany) and grown to confluence in DMEM/10% FBS for 24 h. After removing the inserts, the cells were pre-treated for 40 min at 37 °C with uPAcyclin or diluents at the indicated concentrations, and then incubated in DMEM/3% FBS for 24 h. The images were taken using the Inverted Microscope Leica DMI6000 DFC 402 (Leica Microsystems, Milan, Italy). A total of 10 × 10^4 C6 cells were grown to confluence in 12-well plates, in the presence of DMEM/10% FBS. […] To quantitate cell migration, a rectangle covering the wound edges is drawn on the T0 image and is further applied to the single photograms of each sample. The average margin distance is measured at three points and the results are expressed as percentage wound width of the T0 distance, taken as 100%.
Figure 5 Wound healing assay of U87-MG and C6 cells, in the presence of uPAcyclin. […] (C) For both U87-MG and C6, the wound width at time 0 is taken as 100% and the wound width at T24 or T16 is calculated as relative to that (* p-value < 0.05; ** p-value < 0.005; *** p-value < 0.001).

The mark [2] stands for this setting: 100 nM, 5% FBS, 5 h, expt 1, duplicates.
The mark [3] stands for this setting: 100 nM, 5% FBS, 5 h, expt 2, duplicates.
The mark [4] stands for this setting: 100 nM, 5% FBS, 5 h, expt 3, duplicates.
Setting [5] is: 1 µM, 5% FBS, 5 h, expt 1, duplicates.

Several values for one entry are separate records, joined by “and”; a condition that tells them apart may be missing. Identical values can stand only once.

With “Ac-K^1P[ESPPEELK^10]-NH2 (sidechain bridge or staple) [uPAcyclin]”, in the assay on U87-MG cells (100 nM, U87-MG, 5% FBS, 5 h), the reduction in invasion is recorded as 50–60%. In addition, the invaded cell number/field with U87-MG cells (setting [2]) is 29 cell number/field and 28 cell number/field; in the assay with U87-MG cells (setting [3]), 28 cell number/field and 29 cell number/field; in the assay with U87-MG cells (setting [4]), 34 cell number/field and 33 cell number/field; in the assay on U87-MG cells (setting [5]), 24 cell number/field and 26 cell number/field. For the same substance, the “invasion, % of basal” value in the assay with U87-MG cells (setting [2]) is 111% and 108%; with U87-MG cells (setting [3]) it was 117% and 121%; in the assay on U87-MG cells (setting [4]), 131% and 127%; in the assay on U87-MG cells (setting [5]), 92% and 100%. Further, the “Invasion, %, average 3 expts” value is on record as 119% with U87-MG cells (100 nM, mean of 3 expts) and 96% in the assay on U87-MG cells (1 µM, headed average 3 expts (only expt 1 has data)). Moreover, the “invasion, % basal, average expt 1” value was 110% with U87-MG cells (100 nM) and 96% in the assay on U87-MG cells (1 µM). Besides, in the assay on U87-MG cells (100 nM, mean of expt 2), the “invasion, % basal, average expt 2” value came to 119%. Further, the “invasion, % basal, average expt 3” value in the assay with U87-MG cells (100 nM, mean of expt 3) was determined as 129%. Further, the “invasion, % of basal, T-test list” value is 111 and 108 and 117 and 121 and 131 and 127 in the assay on U87-MG cells (100 nM, single replicates of 3 expts); 92 and 100 with U87-MG cells (printed 10 µM, single replicates). For the same substance, in the assay on U87-MG cells (1 µM, U87-MG, 5% FBS, 5 h), the “invasion, in words” value was “reduced invasion to basal levels”. For the same substance, the lung metastases entry in assay [1] (mice injected with HT1080 fibrosarcoma cells, ref [29]) is reported as “prevent lung metastases”. Moreover, in assay [1] (nude mice, ref [25]), the metastatic lung spreading result is given as “markedly inhibits metastatic lung spreading in nude mice”. Further, in the assay with C6 cells (10 pM or 100 nM, C6, 16 h), the “wound closure, in words” value is given as “dose-dependent inhibition of wound closure”. Moreover, the “reduction of wound healing rate closure” value in the assay with C6 cells (C6, abstract) worked out at 50%.

Source of the values: PMC10571957, “αV-Integrin-Dependent Inhibition of Glioblastoma Cell Migration, Invasion and Vasculogenic Mimicry by the uPAcyclin Decapeptide” (Cancers, 2023).
